Legend:
Assay type in all cases: cell-based
IL-1b = IL-1b production by PHA stimulated human PBLs (ELISA); conditions: 0.7 and 3.13 μg/ml tripterinin, 24 h
Description: (§1) The effect of tripterinin on the production of the cytokines IL-1b, IL2, IL-6, IFNγ, and TNFα was assessed by measurement of the concentration of these cytokines in PHA stimulated human PBL cultures. Cytokine levels were measured by standard ELISA methods using commercially available kits, as detailed in Example 6. Briefly, assay buffer was added to each of the wells of a microtiter plate containing pre-bound anti-cytokine antibody, followed by addition of standard or sample solution, diluted appropriately for the cytokine concentration measured, followed by a second reporter-labeled antibody specific against the anti-cytokine antibody. […]
(§2) Cytokine measurements were carried out using commercially available ELISA assay kits (R&D Systems), in accordance with the supplier's protocols. In brief, 100 μl of the assay buffer supplied was added to each of the wells of a microtiter plate containing pre-bound anti-cytokine antibody, followed by 100 μl of standard or sample solution, diluted appropriately for the concentration range measured. […]
(§3) Following two hours incubation, the plates were washed four times with assay buffer, and the second antibody, anti-anti-cytokine-horseradish peroxidase (HRP), was added to each well in a volume of 200 μl. […] Optical density was determined using a Molecular Devices microtiter plate reader.

[1] = system: human peripheral blood lymphocytes; test: Suppression of human PBL proliferation in vitro ([3H]thymidine incorporation), with or without anti-CD3 (X-35)
Description: One measure of immunosuppression is suppression of stimulated peripheral blood lymphocyte (PBL) proliferation in vitro. In the assay detailed in Example 3, PBLs were activated in vitro by addition of anti-CD3 monoclonal antibody (X-35 antibody). At the same time, purified tripterinin or vehicle (control) was added to each culture, at selected concentrations. After 72 hours incubation, tritiated thymidine was added to the culture medium, and thymidine incorporation into DNA was assayed, as a measure of DNA synthesis associated with cell proliferation.
The ability of tripterifordin to inhibit anti-CD3 stimulated PBL proliferation was assayed at concentrations of 0, 0.78, 3.13, and 12.5 μg/ml, with the results shown in FIG. 9.
Human peripheral blood lymphocytes were prepared using an established method (Boyum). Human blood buffy coat samples, approximately 25 ml/donor, were obtained from the Stanford University Medical Center Blood Bank. Using sterile technique, the buffy coat samples were gently resuspended in a total volume of 100 ml with the addition of calcium and magnesium free Hank's balanced salt solution (HBSS, obtained from Gibco) at room temperature. A volume of 25 ml of the cell suspension was then layered onto 15 ml of Ficoll-Pacque (Pharmacia LKB Biotechnology, Inc.) in a 50 ml conical centrifuge tube. Tubes were centrifuged in a Beckman GPR tabletop centrifuge (GH-3.7 Rotor) at 400×g for 30 minutes at 15° C.
Following centrifugation, the PBL suspensions at the interfaces were transferred to new 50 ml tubes using a transfer pipette, and the PBL samples were resuspended in a total volume of 45 ml HBSS and centrifuged at 354×g for 10 minutes at 15° C. Supernatants were discarded. PBL's were resuspended in 10 ml HBSS, combined to make a total of 45 ml HBSS, and centrifuged at 265×g for 10 minutes at 15° C. The cell pellets were suspended in 10 ml of X-Vivo tissue culture medium (Bio Whittaker) and counted using a hemocytometer. Tissue culture medium was then added to achieve a final cell concentration of 1× 10^6 cells/ml. Additional dilutions were carried out as required for each assay.
Assays were carried out in 96 well sterile tissue culture plates (Costar 3790 and Costar 3595). A volume of 150 μl of X-Vivo medium or sterile distilled water was added to the outer wells of the plate to prevent evaporation of medium within the experimental wells. PBL's from 2 different donors were used in parallel in all experiments. A volume of 100 μl PBL suspension was added to each well using a multichannel pipette. Plates were incubated in an atmosphere of 93% air/7% CO2 in a tissue culture incubator at 37° C. X-35 (AMAC #0178), an anti CD-3 surface antigen antibody, was used at 5 ng/ml to stimulate PBL proliferation.
Tripterinin or tripterifordin was dissolved in ethanol (10 mg/ml) and then diluted in sterile X-Vivo tissue culture medium to obtain the final concentrations required for each experiment.
Four hours prior to the conclusion of incubation, 50 μl of X-Vivo tissue culture medium containing 8 μCi/ml [^3 H]Thymidine (Amersham, 49 Ci/mmol) was added to each tissue culture well. After 72 hours total incubation time, the cells were removed from the tissue culture wells and applied to filter paper using a cell harvester (Brandel Model MB-24). The filter paper was dried for one hour under a heat lamp and then cut into 1 cm discs. Each sample was placed in a scintillation vial containing 2 ml of scintillation fluid (Biosafe, Research Products International Corp.). Samples were counted in a Beckman LS 6000SC scintillation counter.

IFNγ = IFNγ production by PHA stimulated human PBLs (ELISA); conditions: 24 h
Description: as §1, §2, §3

HT-2 cells = test: Inhibition of IL-2 action: IL-2 stimulated HT-2 cell proliferation
Description: Briefly, HT-2 cells were incubated in the presence of IL2, and in the presence of increasing concentrations of tripterinin. After 20 hours incubation, tritiated thymidine was added and the incubation carried out for an additional 4 hours. Cells were harvested and counted as described for PBL proliferation. […] Half maximal inhibition occurred at about 0.1 μg/ml.
The effect of tripterinin on the action of IL-2 was assessed by measurement of the compound's ability to inhibit IL-2 stimulated growth of the IL-2 dependent cell line HT-2, a well-established biological assay of IL-2 action (O'Gara). HT-2 cells were cultured in 75 cm^2 (Corning) tissue culture flasks in RPMI 1640 medium containing 10% fetal bovine serum (Hyclone), 50 μM 2-mercaptoethanol (Fisher), 10 U/ml recombinant human IL-2 (Cetus), 20 mM HEPES, 2 mM glutamine, 100 U/ml penicillin and 100 μg/ml streptomycin. Cells were passaged every 2 days. For experiments, HT-2 cells were centrifuged at 180×g for 10 minutes, washed twice with 10 ml of IL-2 free culture medium and resuspended in RPMI 1640 medium prepared as above, except containing 5% fetal bovine serum. Final cell concentration was 1×10^4 /well. Cultures were incubated with varying concentrations of the tripterinin (95% air/5% CO2, 37° C.) for 20 hours. […] Cells were harvested and counted as described for the PBL proliferation assay.

## C[C@]12CCC[C@]3(COC1=O)[C@@H]2CC[C@@]12C[C@@H](CC[C@]13O)[C@](C)(O)C2 [tripterinin]
IL-1b
  effect on IL-1B production: did not significantly affect
[1]; 0.78 μg/ml tripterinin, unstimulated and anti-CD3 stimulated PBLs
  inhibition of PBL proliferation: substantially complete inhibition
[1]; FIG. 8, 72 h
  Half maximal inhibition of PBL proliferation: approximately 0.5 μg/ml
[1]; stimulated and unstimulated (tripterinin), FIG. 9 (tripterifordin)
  inhibitory effect on PBL proliferation: inhibited PBL proliferation
[1]; unstimulated and anti-CD3 stimulated PBLs
  inhibition of PBL proliferation, dose dependence: dose dependent inhibition
IFNγ; 0.7 μg/ml tripterinin
  decrease in IFNγ production: 84%
IFNγ; 3.13 μg/ml tripterinin
  decrease in IFNγ production: 80%
HT-2 cells; concentration range 0 to 0.78 μg/ml
  fold inhibition of IL-2 induced DNA synthesis: > 10 fold
HT-2 cells; tripterinin 0.4 μg/ml
  fold decrease in IL-2 induced HT-2 cell proliferation (thymidine incorporation): more than 10 fold

From patent US5468772A, “Tripterinin compound and method” (Pharmagenesis, Inc., priority 1993, dated 1995)
